Test results taken from ChEMBL document CHEMBL1148993, “UV-mediated genotoxicity of furanoquinoline and of certain tryptophan-derived alkaloids” (J Nat Prod, 1983).
Where a name gives a salt, the structure may show the parent alone.

Columns and labels:
[1] = test system: Candida albicans; assay: Phototoxicity against Candida albicans at 100 ug/disk in dark; assay type: functional; conditions: light or radiation study, read-out: IZ
[2] = test system: Pseudomonas fluorescens; assay: Phototoxicity against Pseudomonas fluorescens at 100 ug/disk after irradiation with W/m'2 UV light; assay type: functional; conditions: light or radiation study, read-out: IZ
[3] = test system: Staphylococcus aureus; assay: Phototoxicity against Staphylococcus aureus at 100 ug/disk in dark; assay type: functional; conditions: light or radiation study, read-out: IZ
[4] = test system: Escherichia coli; assay: Phototoxicity against Escherichia coli at 100 ug/disk after irradiation with W/m'2 UV light; assay type: functional; conditions: light or radiation study, read-out: IZ
[5] = test system: Staphylococcus aureus; assay: Phototoxicity against Staphylococcus aureus at 100 ug/disk after irradiation with W/m'2 UV light; assay type: functional; conditions: light or radiation study, read-out: IZ
[6] = test system: Escherichia coli; assay: Phototoxicity against Escherichia coli at 100 ug/disk in dark; assay type: functional; conditions: light or radiation study, read-out: IZ
[7] = test system: Saccharomyces cerevisiae; assay: Phototoxicity against Saccharomyces cerevisiae at 100 ug/disk in dark; assay type: functional; conditions: light or radiation study, read-out: IZ
[8] = test system: Saccharomyces cerevisiae; assay: Phototoxicity against Saccharomyces cerevisiae at 100 ug/disk after irradiation with W/m'2 UV light; assay type: functional; conditions: light or radiation study, read-out: IZ
[9] = test system: Bacillus subtilis; assay: Phototoxicity against Bacillus subtilis at 100 ug/disk in dark; assay type: functional; conditions: light or radiation study, read-out: IZ
[10] = test system: Pseudomonas aeruginosa; assay: Phototoxicity against Pseudomonas aeruginosa at 100 ug/disk in dark; assay type: functional; conditions: light or radiation study, read-out: IZ
[11] = test system: Pseudomonas fluorescens; assay: Phototoxicity against Pseudomonas fluorescens at 100 ug/disk in dark; assay type: functional; conditions: light or radiation study, read-out: IZ
[12] = test system: Pseudomonas aeruginosa; assay: Phototoxicity against Pseudomonas aeruginosa at 100 ug/disk after irradiation with W/m'2 UV light; assay type: functional; conditions: light or radiation study, read-out: IZ
[13] = test system: Bacillus subtilis; assay: Phototoxicity against Bacillus subtilis at 100 ug/disk after irradiation with W/m'2 UV light; assay type: functional; conditions: light or radiation study, read-out: IZ
[14] = test system: Enterococcus faecalis; assay: Phototoxicity against Streptococcus faecalis at 100 ug/disk in dark; assay type: functional; conditions: light or radiation study, read-out: IZ
[15] = test system: Candida albicans; assay: Phototoxicity against Candida albicans at 100 ug/disk after irradiation with W/m'2 UV light; assay type: functional; conditions: light or radiation study, read-out: IZ
[16] = test system: Enterococcus faecalis; assay: Phototoxicity against Streptococcus faecalis at 100 ug/disk after irradiation with W/m'2 UV light; assay type: functional; conditions: light or radiation study, read-out: IZ
[17] = test system: CHO; assay: Genotoxicity against CHO cells after UV irradiation; assay type: toxicity, cell-based, Cricetulus griseus; conditions: chinese hamster
[18] = test system: CHO; assay: Genotoxicity against CHO cells; assay type: toxicity, cell-based, Cricetulus griseus; conditions: chinese hamster
[19] = test system: CHO; assay: Genotoxicity in CHO cells assessed as chromosomal aberrations at 50 ppm after 90 mins in dark; assay type: toxicity, cell-based, Cricetulus griseus; conditions: chinese hamster, 1.5 h
[20] = test system: CHO; assay: Genotoxicity in CHO cells assessed as chromosomal aberrations at 6.2 ppm after 60 mins in dark followed by 5 W/m'2 UV irradiation for 30 mins; assay type: toxicity, cell-based, Cricetulus griseus; conditions: chinese hamster, 0.5 h
[21] = test system: CHO; assay: Genotoxicity in CHO cells assessed as chromosomal aberrations at 50 ppm after 60 mins in dark followed by 5 W/m'2 UV irradiation for 30 mins; assay type: toxicity, cell-based, Cricetulus griseus; conditions: chinese hamster
[22] = test system: CHO; assay: Genotoxicity in CHO cells assessed as chromosomal aberrations at 3.1 ppm after 60 mins in dark followed by 5 W/m'2 UV irradiation for 30 mins; assay type: toxicity, cell-based, Cricetulus griseus; conditions: chinese hamster, 0.5 h
[23] = test system: CHO; assay: Genotoxicity in CHO cells assessed as chromosomal aberrations at 0.4 ppm after 60 mins in dark followed by 5 W/m'2 UV irradiation for 30 mins; assay type: toxicity, cell-based, Cricetulus griseus; conditions: chinese hamster, 0.5 h
[24] = test system: CHO; assay: Genotoxicity in CHO cells assessed as chromosomal aberrations at 12.5 ppm after 60 mins in dark followed by 5 W/m'2 UV irradiation for 30 mins; assay type: toxicity, cell-based, Cricetulus griseus; conditions: chinese hamster, 0.5 h
[25] = test system: CHO; assay: Genotoxicity in CHO cells assessed as chromosomal aberrations at 0.8 ppm after 60 mins in dark followed by 5 W/m'2 UV irradiation for 30 mins; assay type: toxicity, cell-based, Cricetulus griseus; conditions: chinese hamster, 0.5 h
[26] = test system: CHO; assay: Genotoxicity in CHO cells assessed as chromosomal aberrations at 25 ppm after 60 mins in dark followed by 5 W/m'2 UV irradiation for 30 mins; assay type: toxicity, cell-based, Cricetulus griseus; conditions: chinese hamster
[27] = test system: Enterococcus faecalis; assay: Phototoxicity against Streptococcus faecalis at 10 ug/disk in dark; assay type: functional; conditions: light or radiation study, read-out: IZ
[28] = test system: CHO; assay: Genotoxicity in CHO cells assessed as chromosomal aberrations at 0.1 ppm after 60 mins in dark followed by 5 W/m'2 UV irradiation for 30 mins; assay type: toxicity, cell-based, Cricetulus griseus; conditions: chinese hamster, 0.5 h
[29] = test system: Pseudomonas fluorescens; assay: Phototoxicity against Pseudomonas fluorescens at 10 ug/disk after irradiation with W/m'2 UV light; assay type: functional; conditions: light or radiation study, read-out: IZ
[30] = test system: CHO; assay: Genotoxicity in CHO cells assessed as chromosomal aberrations at 0.02 ppm after 60 mins in dark followed by 5 W/m'2 UV irradiation for 30 mins; assay type: toxicity, cell-based, Cricetulus griseus; conditions: chinese hamster, 0.5 h
[31] = test system: CHO; assay: Genotoxicity in CHO cells assessed as mitotic inhibition at 0.2 ppm after 60 mins in dark followed by 5 W/m'2 UV irradiation for 30 mins; assay type: toxicity, cell-based, Cricetulus griseus; conditions: chinese hamster, 0.5 h
[32] = test system: Pseudomonas aeruginosa; assay: Phototoxicity against Pseudomonas aeruginosa at 10 ug/disk after irradiation with W/m'2 UV light; assay type: functional; conditions: light or radiation study, read-out: IZ
[33] = test system: Staphylococcus aureus; assay: Phototoxicity against Staphylococcus aureus at 10 ug/disk in dark; assay type: functional; conditions: light or radiation study, read-out: IZ
[34] = test system: Candida albicans; assay: Phototoxicity against Candida albicans at 10 ug/disk after irradiation with W/m'2 UV light; assay type: functional; conditions: light or radiation study, read-out: IZ
[35] = test system: Staphylococcus aureus; assay: Phototoxicity against Staphylococcus aureus at 10 ug/disk after irradiation with W/m'2 UV light; assay type: functional; conditions: light or radiation study, read-out: IZ
[36] = test system: CHO; assay: Genotoxicity in CHO cells assessed as chromosomal aberrations at 0.3 ppm after 90 mins in dark; assay type: toxicity, cell-based, Cricetulus griseus; conditions: chinese hamster, 1.5 h
[37] = test system: Escherichia coli; assay: Phototoxicity against Escherichia coli at 10 ug/disk after irradiation with W/m'2 UV light; assay type: functional; conditions: light or radiation study, read-out: IZ
[38] = test system: Candida albicans; assay: Phototoxicity against Candida albicans at 10 ug/disk in dark; assay type: functional; conditions: light or radiation study, read-out: IZ
[39] = test system: Bacillus subtilis; assay: Phototoxicity against Bacillus subtilis at 10 ug/disk in dark; assay type: functional; conditions: light or radiation study, read-out: IZ
[40] = test system: Pseudomonas fluorescens; assay: Phototoxicity against Pseudomonas fluorescens at 10 ug/disk in dark; assay type: functional; conditions: light or radiation study, read-out: IZ
[41] = test system: Enterococcus faecalis; assay: Phototoxicity against Streptococcus faecalis at 10 ug/disk after irradiation with W/m'2 UV light; assay type: functional; conditions: light or radiation study, read-out: IZ
[42] = test system: CHO; assay: Genotoxicity in CHO cells assessed as chromosomal aberrations at 0.04 ppm after 60 mins in dark followed by 5 W/m'2 UV irradiation for 30 mins; assay type: toxicity, cell-based, Cricetulus griseus; conditions: chinese hamster, 0.5 h
[43] = test system: Bacillus subtilis; assay: Phototoxicity against Bacillus subtilis at 10 ug/disk after irradiation with W/m'2 UV light; assay type: functional; conditions: light or radiation study, read-out: IZ
[44] = test system: Escherichia coli; assay: Phototoxicity against Escherichia coli at 10 ug/disk in dark; assay type: functional; conditions: light or radiation study, read-out: IZ
[45] = test system: Pseudomonas aeruginosa; assay: Phototoxicity against Pseudomonas aeruginosa at 10 ug/disk in dark; assay type: functional; conditions: light or radiation study, read-out: IZ
[46] = test system: Saccharomyces cerevisiae; assay: Phototoxicity against Saccharomyces cerevisiae at 10 ug/disk in dark; assay type: functional; conditions: light or radiation study, read-out: IZ
[47] = test system: Saccharomyces cerevisiae; assay: Phototoxicity against Saccharomyces cerevisiae at 10 ug/disk after irradiation with W/m'2 UV light; assay type: functional; conditions: light or radiation study, read-out: IZ
[48] = test system: CHO; assay: Genotoxicity in CHO cells assessed as mitotic inhibition at 1.25 ppm after 60 mins in dark followed by 5 W/m'2 UV irradiation for 30 mins; assay type: toxicity, cell-based, Cricetulus griseus; conditions: chinese hamster, 0.5 h
[49] = test system: CHO; assay: Genotoxicity in CHO cells assessed as mitotic inhibition at 0.62 ppm after 60 mins in dark followed by 5 W/m'2 UV irradiation for 30 mins; assay type: toxicity, cell-based, Cricetulus griseus; conditions: chinese hamster, cho, 0.5 h

SMILES: O=C1C[C@@H]2OCC=C3CN4CC[C@]56c7ccccc7N1[C@H]5[C@H]2[C@H]3C[C@H]46 [STRYCHNINE SULFATE]
- zone of inhibition at 100 µg/disc [1]: 0 mm
- zone of inhibition at 100 µg/disc [2]: 0 mm
- zone of inhibition at 100 µg/disc [3]: 0 mm
- zone of inhibition at 100 µg/disc [4]: 0 mm
- zone of inhibition at 100 µg/disc [5]: 0 mm
- zone of inhibition at 100 µg/disc [6]: 0 mm
- zone of inhibition at 100 µg/disc [7]: 0 mm
- zone of inhibition at 100 µg/disc [8]: 0 mm
- zone of inhibition at 100 µg/disc [9]: 0 mm
- zone of inhibition at 100 µg/disc [10]: 0 mm
- zone of inhibition at 100 µg/disc [11]: 0 mm
- zone of inhibition at 100 µg/disc [12]: 0 mm
- zone of inhibition at 100 µg/disc [13]: 0 mm
- zone of inhibition at 100 µg/disc [14]: 0 mm
- zone of inhibition at 100 µg/disc [15]: 0 mm
- zone of inhibition at 100 µg/disc [16]: 0 mm

SMILES: O=C1C[C@@H]2OCC=C3CN4CC[C@]56c7ccccc7N1[C@H]5[C@H]2[C@H]3C[C@H]46 [STRYCHNINE]
- Activity [17]: Not Active
- Activity [18]: Not Active

SMILES: COc1ccc2c(OC)c3ccoc3nc2c1OC [SKIMMIANINE]
- Activity [19]: 0%
- Activity [20]: 59.9%
- Activity [21]: Toxic
- Activity [22]: 45%
- Activity [23]: 3%
- Activity [24]: 61.9%
- Activity [25]: 10.9%
- Activity [26]: 50%

SMILES: CC[C@]1(O)C[C@@H]2CN(CCc3c([nH]c4ccccc34)[C@@](C(=O)OC)(c3cc4c(cc3OC)N(C)[C@H]3[C@@](O)(C(=O)OC)[C@H](OC(C)=O)[C@]5(CC)C=CCN6CC[C@]43[C@@H]65)C2)C1 [VINBLASTINE]
- Activity [17]: Not Active
- Activity [18]: Not Active

SMILES: COc1c2occc2cc2ccc(=O)oc12 [METHOXSALEN]
- zone of inhibition at 10 µg/disc [27]: 0 mm
- Activity [28]: 63.6%
- zone of inhibition at 10 µg/disc [29]: 0 mm
- Activity [30]: 7.1%
- Activity [31]: Active
- zone of inhibition at 10 µg/disc [32]: 0 mm
- zone of inhibition at 10 µg/disc [33]: 0 mm
- zone of inhibition at 10 µg/disc [34]: 14 mm
- zone of inhibition at 10 µg/disc [35]: 18 mm
- Activity [36]: 0%
- zone of inhibition at 10 µg/disc [37]: 14 mm
- zone of inhibition at 10 µg/disc [38]: 0 mm
- zone of inhibition at 10 µg/disc [39]: 0 mm
- zone of inhibition at 10 µg/disc [40]: 0 mm
- zone of inhibition at 10 µg/disc [41]: 14 mm
- Activity [42]: 38.8%
- zone of inhibition at 10 µg/disc [43]: 14 mm
- zone of inhibition at 10 µg/disc [44]: 0 mm
- zone of inhibition at 10 µg/disc [45]: 0 mm
- zone of inhibition at 10 µg/disc [46]: 0 mm
- zone of inhibition at 10 µg/disc [47]: 19 mm

SMILES: CN1[C@@H]2CC[C@H]1C[C@@H](OC(=O)C(CO)c1ccccc1)C2 (some centres undefined) [ATROPINE SULFATE]
- zone of inhibition at 100 µg/disc [1]: 0 mm
- zone of inhibition at 100 µg/disc [2]: 0 mm
- zone of inhibition at 100 µg/disc [3]: 0 mm
- zone of inhibition at 100 µg/disc [5]: 0 mm
- zone of inhibition at 100 µg/disc [7]: 0 mm
- zone of inhibition at 100 µg/disc [8]: 0 mm
- zone of inhibition at 100 µg/disc [10]: 0 mm
- zone of inhibition at 100 µg/disc [11]: 0 mm
- zone of inhibition at 100 µg/disc [12]: 0 mm
- zone of inhibition at 100 µg/disc [13]: 0 mm
- zone of inhibition at 100 µg/disc [14]: 0 mm
- zone of inhibition at 100 µg/disc [15]: 0 mm
- zone of inhibition at 100 µg/disc [16]: 0 mm

SMILES: COc1ccc2c3c([nH]c2c1)C(C)=NCC3 [HARMALINE]
- Activity [48]: Active
- Activity [49]: Active
